From patent US20260294849A1, “METHODS FOR TREATING CORNEAL INJURIES” (National Taiwan University, priority 2023, published 2026) come the findings set out here.

Entries after “also recorded” stand apart in the source; their conditions may differ. Counter-ions that a name gives are not always drawn.

Holding throughout (type): in vivo, mice (nT/nG transgenic)
In one data set the test system is laser-injured cornea. In words: Corneal observation (opacity, edema, ulcer formation, ocular surface) via gross images after laser ablation and intracameral injection. The note with it: for Ocular surface of the eye: Day 2 after laser ablation and intracameral injection, BSS group: mild inflammation and irritation; for Edema / Opacity / Ulcer formation: laser-injured cornea after treatment, single intracameral injection 0.5 μl, Day 2; for Edema: BSS group: mild edema; for Opacity: BSS group: slight opacity; for Ulcer formation: BSS group: slight ulcer formation. An excerpt:
(§1) nT/nG transgenic mice (Jax #023035; the Jackson Laboratory), having a Cre-reporter allele comprising a cell nuclear-targeted tandem dimerTomato (tdTomato; an orange fluorescent protein) and an enhanced green fluorescent protein (EGFP) (Prigge, Wiley et al., 2013; “Nuclear double-fluorescent reporter for in vivo and ex vivo analyses of biological transitions in mouse nuclei.”), were used in the present study for investigating the cell density and the healing process in corneal endothelium. The mice were characterized in that, prior to Cre recombination, widespread fluorescence expression of tdTomato (localized to the cell nucleus) was observed; whereas following Cre recombination, nuclear-localized green fluorescence was detected. All procedures on mice were approved by and performed in accordance with the Institutional Animal Care and Use Committees of National Taiwan University.
(§2) To eliminate the corneal endothelial cells, the multiphoton femtosecond laser was employed to induce cell ablation due to its ability to precisely control cell ablation in time and space with minimal injury made to adjacent tissues (Rompolas, Deschene et al., 2012; “Live imaging of stem cell and progeny behaviour in physiological hair-follicle regeneration.”). Once the corneal endothelial cells needed to be removed were identified, laser ablation was performed on the selected area (50 μm×50 μm) with a 880 nm laser wavelength and a 500 mW laser power in a single scan, with repeatedly adjusting the laser along the z-axis to achieve optimal results.
(§3) Following laser ablation, the aforementioned drugs were intracamerally injected to the cornea of the mice immediately using a customized needle attached to a 5 μl syringe (Hamilton). To avoid the motion, a cotton swab was used to prop the eyeball during the intracameral injection above on the peripheral region of the cornea. Each eye was slowly applied with a single dose of 0.5 μl different drugs.
The test compound(s) was/were intracamerally administered to the mice following laser ablation of the cornea, and then the corneal opacity was initially evaluated via gross images of the cornea.

In data set [1] the test system is corneal endothelial cells. In words: Corneal endothelial cell density after laser ablation (confocal cell counting). Conditions: for Corneal endothelial cell density: day 2 after laser ablation, intracameral injection, means±SEM, Control 728.5 ± 55.01, BSS 633 ± 33.7; for Protection of the corneal endothelial cells against injuries: order: Formoterol Sulfate>Formoterol PG>Formoterol BG>Formoterol>THBP>Permethrin>Fenbutrazate>Levonordefrin>Encainide>Bhilawanol A.
From the text: as §1, §2, §3
The mice were anesthesia and sacrificed on day 2 after laser ablation with the indicated treatments administered (as shown in FIGS. 1-3), and their eyes were enucleated and fixed in 4% paraformaldehyde (PFA) at 4° C. overnight. After dissecting the cornea from the eyeball, the cornea was cut into a four-petal shape, placed on glass slides, mounted with a mounting medium (Vector), and immobilized by using a coverslip. All the fluorescent images were acquired by a SP8 confocal microscope (Leica), with steps set at 1 μm per z-section for a 20× objective. The cell nuclear ware manually segmented by using spot plugin in Imaris (Oxford instruments). For each sample, a circle area with a diameter of 300 μm was selected to count the cell numbers, so as to quantify the cell density in different drug treatments.
All the experimental data were performed by Prism and represented as means±SEM. The statistical significance of difference between the experimental groups was evaluated by Student's t test. P values<0.05 were considered statistically significant.
The protective effect of the present compound(s) on the corneal endothelial cells against injuries was evaluated by counting the cell number and/or the density of the corneal endothelial cells, instead of the keratocytes in corneal stroma or the other cell populations in trabecular meshwork.

In data set [2] the test system is corneal endothelial cells. As to the kind of experiment: Corneal wound healing by multiphoton microscopy (intravital imaging) after laser ablation. The note with it: intracameral injection; for Corneal wound healing, Day 1: Day 1 after laser ablation, BSS group could not seal the wound defects; for Corneal wound healing, Day 2: Day 2 after laser ablation, BSS group: compromised integrity until Day 2.
From the text: as §1
For live image acquisition, mice were anesthetized by intramuscular injection of 50-80 mg/kg Zoletil (Virbac). The corneal surface was anesthetized with 0.4% oxybuprocaine hydrochloride (Sigma) in saline. An eye holder was used to minimize artifacts during intravital imaging, as previously described (Wu, Wang et al., 2019; “Intravital multiphoton microscopic imaging platform for ocular surface imaging.”). Intravital imaging was performed using a laser wavelength of 880 nm for tdTomato excitation and a laser power of approximately 35 mW at the sample plane to optimize the image quality without photobleaching. A water-immersion 20×/NA1.0 objective lens (Olympus) was used to focus the laser light onto the eyes, after the laser light was reflected by the main dichroic mirror (Semrock). The tdTomato signals were spectrally separated using a bandpass filter of 585/40 nm (Semrock). To prevent dryness of the ocular surface during imaging, an eye gel (Vidisic Gel, Dr. Gerhard Mann Chem-Pharm) with a refractive index of 1.338 was used as an immersion medium on the cornea. Image stacks along the z-axis with a step size of 1 μm were acquired, and the dimensions of the images acquired in this study were 512×512 pixels.
as §2, §3
The efficacy of the tested drugs in promoting the corneal wound healing was investigated by a multiphoton microscopy analysis, in which changes in the wound site following drug injection was tracked.

For the compound 2,2,4,4-Tetrahydroxybenzophenone [THBP], in the data set on laser-injured cornea, the “Ocular surface of the eye” value is “maintained the ocular surface of the eye moist and transparent”; the Edema entry is “No”; the Opacity result is “No”; the Ulcer formation result is on record as “No”. Moreover, in data set [1], the “Corneal endothelial cell density” value is on record as 724 ± 12.8 cell number/the area of a circ and the “Protection of the corneal endothelial cells against injuries” value (shortened to “Protection”) is recorded as “protected the corneal endothelial cells”. Besides, the “Corneal wound healing, Day 1” value in data set [2] (6 μM) was “accelerated wound healing and sealed the defects on Day 1”.
On to `CCCCCC/C=C\CCCCCCCc1cccc(O)c1O` [Bhilawanol A], for which, in the data set on laser-injured cornea, the “Ocular surface of the eye” value is “maintained the ocular surface of the eye moist and transparent”; the Edema entry was “No”; the Opacity result was “No”; the Ulcer formation entry is listed as “No”. In data set [1], the “Corneal endothelial cell density” value is 674.3 ± 8 cell number/the area of a circ and the “Protection” value is on record as “protected the corneal endothelial cells”. For the same compound, the “Corneal wound healing, Day 2” value in data set [2] (30 μM (238.875 ng/kg)) is reported as “promoted wound healing on Day 2”.
For `COc1ccc(C(=O)Nc2ccccc2CCC2CCCCN2C)cc1` (stereo not drawn) [Encainide, reference compound], in the data set with laser-injured cornea, the “Ocular surface of the eye” value was “maintained the ocular surface of the eye moist and transparent”; the Edema entry is “No”; the Opacity result was “No”; the Ulcer formation result is recorded as “No”. Moreover, in data set [1], the “Corneal endothelial cell density” value is 690 ± 8.8 cell number/the area of a circ and the “Protection” value is reported as “protected the corneal endothelial cells”. Further, the “Corneal wound healing, Day 2” value in data set [2] (6 μM) is on record as “promoted wound healing on Day 2”.
Turning to `CCC(C(=O)OCCN1CCOC(c2ccccc2)C1C)c1ccccc1` (stereo not drawn) [Fenbutrazate, reference compound], in the data set on laser-injured cornea, the “Ocular surface of the eye” value was “maintained the ocular surface of the eye moist and transparent”; the Edema entry is listed as “No”; the Opacity result was “slightly hazy spot formation; also recorded: Slight hazy”; the Ulcer formation result is on record as “No”. In data set [1], the “Corneal endothelial cell density” value is given as 720.8 ± 14.9 cell number/the area of a circ and the “Protection” value is “protected the corneal endothelial cells”. Moreover, the “Corneal wound healing, Day 2” value in data set [2] (6 μM) is listed as “promoted wound healing on Day 2”.
With `COc1ccc(CC(C)NCC(OC2O[C@H](C(=O)O)[C@@H](O)[C@H](O)[C@H]2O)c2ccc(O)c(NC=O)c2)cc1` (stereo partly drawn) [Formoterol BG, Formoterol Benzyl Glucuronide], in the data set with laser-injured cornea, the “Ocular surface of the eye” value is “maintained the ocular surface of the eye moist and transparent”; the Edema entry is on record as “No”; the Opacity entry is listed as “No”; the Ulcer formation result was “No”. In data set [1], the “Corneal endothelial cell density” value is reported as 796 ± 24.9 cell number/the area of a circ and the “Protection” value is recorded as “protected the corneal endothelial cells”. Further, in data set [2] (6 μM), the “Corneal wound healing, Day 2” value is “promoted wound healing on Day 2”.
For the compound `COc1ccc(C[C@@H](C)NC[C@H](O)c2ccc(O[C@@H]3O[C@H](C(=O)O)[C@@H](O)[C@H](O)[C@H]3O)c(NC=O)c2)cc1` [Formoterol PG, Formoterol Phenolic Glucuronide], in the data set with laser-injured cornea, the “Ocular surface of the eye” value was “maintained the ocular surface of the eye moist and transparent”; the Edema entry is recorded as “No”; the Opacity result is on record as “No”; the Ulcer formation entry is listed as “No”. For the same compound, in data set [1], the “Corneal endothelial cell density” value is given as 799.5 ± 23.56 cell number/the area of a circ and the “Protection” value is on record as “protected the corneal endothelial cells”. Besides, in data set [2] (6 μM), the “Corneal wound healing, Day 2” value is reported as “promoted wound healing on Day 2”.
As for `COc1ccc(C[C@@H](C)NC[C@H](O)c2ccc(OS(=O)(=O)O)c(NC=O)c2)cc1` [Formoterol Sulfate], in the data set with laser-injured cornea, the “Ocular surface of the eye” value is “maintained the ocular surface of the eye moist and transparent”; the Edema entry was “No”; the Opacity result is “No”; the Ulcer formation entry is reported as “No”. In data set [1], the “Corneal endothelial cell density” value is given as 805.25 ± 22.3 cell number/the area of a circ and the “Protection” value is “protected the corneal endothelial cells”. In addition, the “Corneal wound healing, Day 2” value in data set [2] (6 μM) was “promoted wound healing on Day 2”.
In the case of `C[C@H](N)[C@H](O)c1ccc(O)c(O)c1` [Levonordefrin, reference compound], in the data set on laser-injured cornea, the “Ocular surface of the eye” value is “maintained the ocular surface of the eye moist and transparent”; the Edema result is “No”; the Opacity result is recorded as “No”; the Ulcer formation entry is “No”. In data set [1], the “Corneal endothelial cell density” value is recorded as 710.5 ± 41.7 cell number/the area of a circ and the “Protection” value is on record as “protected the corneal endothelial cells”. Moreover, in data set [2] (6 μM), the “Corneal wound healing, Day 1” value is “accelerated wound healing and sealed the defects on Day 1”.
In the case of `CC1(C)C(C=C(Cl)Cl)C1C(=O)OCc1cccc(Oc2ccccc2)c1` (stereo not drawn) [Permethrin, reference compound], in the data set on laser-injured cornea, the “Ocular surface of the eye” value was “maintained the ocular surface of the eye moist and transparent”; the Edema result is recorded as “No”; the Opacity entry is “No”; the Ulcer formation result is listed as “No”. For the same compound, in data set [1], the “Corneal endothelial cell density” value was 721.8 ± 12.9 cell number/the area of a circ and the “Protection” value is “protected the corneal endothelial cells”. In data set [2] (6 μM), the “Corneal wound healing, Day 2” value is given as “promoted wound healing on Day 2”.
